# ChEMBL document CHEMBL1150103, “Curacins B and C, New Antimitotic Natural Products from the Marine Cyanobacterium Lyngbya majuscula” (J Nat Prod, 1995)
# Assays:
# [1] = Displacement of [3H]colchicine from tubulin; settings: concentration not given here
# [2] = Toxicity in brine shrimp; type: organism-based; settings: artemia, in vivo; read-out: LD50 (the source's name)
# [3] = Inhibition of tubulin polymerization
# L1210 = assay: Cytotoxicity against mouse L1210 cells; type: functional, cell-based
# CA46 = assay: Cytotoxicity against human CA46 cells; type: functional, cell-based
smiles,measurement,setting,value
C=CC[C@@H](CC/C(C)=C/C=C/CC/C=C\[C@@H]1CSC([C@@H]2C[C@@H]2C)=N1)OC [CURACIN A],inhibition,[1],96%
same,LC50,[2],8 nM
same,IC50,[3],1400 nM
C=CC[C@@H](CC/C(C)=C/C=C\CC/C=C\[C@@H]1CSC([C@@H]2C[C@@H]2C)=N1)OC [CURACIN B],LC50,[2],38 nM
same,Activity,L1210,Toxic
same,Activity,CA46,Toxic
C=CC[C@@H](CC/C(C)=C\C=C\CC/C=C\[C@@H]1CSC([C@@H]2C[C@@H]2C)=N1)OC [CURACIN C],LC50,[2],54 nM
same,Activity,L1210,Toxic
same,Activity,CA46,Toxic
